The source of these data is US20060217375A1, “New compounds” (priority 2004, published 2006).

For one assay, the target named is T1, human OX-1R (Homo sapiens, UniProt O43613).
T1 construct: expressed in transfected cells; host or cells: HEK293EBNA
T1 sequence (O43613 1-425): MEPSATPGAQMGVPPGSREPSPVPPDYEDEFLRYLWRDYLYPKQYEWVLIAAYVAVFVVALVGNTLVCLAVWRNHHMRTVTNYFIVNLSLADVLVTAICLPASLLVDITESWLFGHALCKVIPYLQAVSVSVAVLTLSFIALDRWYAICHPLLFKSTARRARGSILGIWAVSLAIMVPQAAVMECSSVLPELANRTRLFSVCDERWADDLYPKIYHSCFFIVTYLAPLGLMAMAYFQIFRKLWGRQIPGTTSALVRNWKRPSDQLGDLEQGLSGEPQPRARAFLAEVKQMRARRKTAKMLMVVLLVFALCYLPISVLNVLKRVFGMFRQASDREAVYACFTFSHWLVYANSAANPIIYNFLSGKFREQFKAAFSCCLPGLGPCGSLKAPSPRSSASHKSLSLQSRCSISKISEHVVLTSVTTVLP
Description: Functional Ki determination: inhibition of orexin-A induced Ca2+ release (FLIPR, Fluo-4AM) in HEK293EBNA cells stably expressing OX-1R. The assay is classed as cell-based. Here is the method:
Human embryonic kidney (HEK293EBNA) cells stably expressing OX-1R seeded in 96- or 384-well plates are pre-loaded with Ca^2+ sensing probe Fluo-4AM fluorescent dye for 60 min before addition of test compounds (10 μM for primary screen). Fluorescent intensity, which is a measurement of Ca^2+ concentration inside the cells, is recorded using a Fluorometric imaging plate reader (FLIPR 98R 96-well format or FLIPR 3, 384-well format, Molecular Devices) and inhibition of the peak response evoked by orexin-A (EC70 concentration) is calculated. Potency (Ki) determinations are performed utilizing the same functional assay as described for primary screening, applying the compounds in the concentration range of 340 pM to 20 μM and recording the concentration resulting in a 50% inhibition of orexin-A induced Ca^2+ release (IC50) and from there calculating the inhibition constant (Ki).
The calculation of the functional Ki values for the inhibitors was performed by use of Activity Base. The Ki value is calculated from IC50 using the Cheng Prushoff equation (with reversible inhibition that follows the Michaelis-Menten equation): Ki=IC50/(1+[S]/Km) (Cheng, Y. C. & Prushoff, W. H. (1973) Biochem. Pharmacol. 22:3099-3108).

A further assay concerns rats. Particulars: i.p.; cited from earlier work.
Another assay deals with ob/ob mice. To be noted: 30 mg/kg i.p. once daily for 7 days plus twice daily for another 7 days; cited from earlier work.

Consider `O=C(COc1cccc(-c2ccc3c(c2)COC2(CCNCC2)O3)c1)Nc1ccccc1` [Example 8, N-phenyl-2-[3-(4H-spiro[1,3-benzodioxine-2,4′-piperidin]-6-yl)phenoxy]acetamide], for which the Ki at human OX-1R came to 253 nM.
`Cc1nc2ccc(NC(=O)Nc3ccnc4cccnc34)cc2o1` [SB-334867]: the behavioral satiety sequence result with rats was “advances the behavioral satiety sequence increasing the time the animals spend resting”. Also, in the assay on ob/ob mice, the body weight gain entry is reported as “suppressed”, the cumulative food intake entry was “suppressed”, the lean body mass result is “unchanged” and the total fat mass entry is listed as “reduced”.
In the case of `COc1cc(-c2ccc3c(c2)COC2(CCNCC2)O3)cc(OC)c1OC` [Example 2, 6-[3,4,5-trimethoxyphenyl]-4H-spiro[1,3-benzodioxine-2,4′-piperidine]], the affinity at human OX-1R, expressed as Ki, was 349 nM.
Still for that read-out and setting: with `COc1cc(-c2ccc3c(c2)OC2(CCNCC2)O3)cc(OC)c1OC` [Example 4, 5-(3,4,5-trimethoxyphenyl)spiro[1,3-benzodioxole-2,4′-piperidine]] the figure was 823 nM.
